The results in this text go back to PubChem BioAssay (NCI).

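Compound exposure: 48 hours, 5 concentrations, 96-well plates. Abbreviation: GI50, concentration required for 50% inhibition of growth. TGI denotes the concentration required for complete inhibition of growth.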

What all share (experiment): inhibition of tumour cell growth, NCI panel, 48 h
Assay [1] has as its system HT29 colon.
Assay [2] deals with SF-539 CNS.
For assay [3], the system named is RXF 393 renal.
Assay [4] relates to NCI-H460 lung.
Assay [5] concerns U251 CNS.
The subject of assay [6] is SN12C renal.
In assay [7] the test system is SK-OV-3 ovarian.
Assay [8] deals with UACC-257 melanoma.
Assay [9] concerns DU-145 prostate.

On to `Cn1nc(-c2ccccc2)c(C(=O)/C=C/c2ccc(Cl)cc2)c(N2CCCCC2)c1=O`, for which the TGI in assay [1] turned out to be 6.9 µM; in [2], 2.98 µM; in assay [3] it was 2.8 µM; in [4] it was 7.4 µM; in assay [5], 3.82 µM; in assay [6], 20.5 µM. In assay [7], this compound gave a TGI of 9.81 µM.
In the case of `CC1=C[C@]2(O)C(=O)[C@H](C)C[C@H]3[C@@H](CC[C@@](C)(O)/C=C\2C1=O)C3(C)C`, the TGI in [1] is over 71.6 µM; in assay [2], 46.8 µM; in assay [3], 19.8 µM; in [4], over 57.6 µM; in assay [5], 52.7 µM; in [8], 35.7 µM. Moreover, the TGI was 41.5 µM in assay [6] and 98 µM in assay [7].
With `CCOc1ccc(N=Cc2ccc3cc(C)ccc3n2)cc1`, the TGI in [1], in assay [2], in assay [3], in [4], in [5] and in assay [8] was over 100 µM each time. In addition, the TGI in assay [6] and in assay [7] was over 100 µM in each case.
On to `CC(C)(C)CC(C)(C)c1cc2c(O)c(c1)Cc1cc(C(C)(C)CC(C)(C)C)cc(c1O)Cc1cc(C(C)(C)CC(C)(C)C)cc(c1O)Cc1cc(C(C)(C)CC(C)(C)C)cc(c1O)Cc1cc(C(C)(C)CC(C)(C)C)cc(c1O)C2`, for which the TGI in [1], in [2], in assay [3], in assay [4], in assay [5] and in assay [8] was over 100 µM each time. The compound further displayed a TGI in assay [6] of over 100 µM.
On to `COC(=O)C1=C(O)c2cc(-c3ccccc3)c(-c3ccccc3)c(C#N)c2NC(=O)C1`, for which the TGI in assay [1] is over 100 µM; in assay [2], over 100 µM; in assay [3], 9.33 µM; in assay [4], over 100 µM; in assay [5], over 100 µM; in [8], over 100 µM. This compound showed a TGI in assay [6] of over 100 µM.
As for `Cc1cc(-c2nc3sccn3c2/C=N/N=C(N)N)c(C)s1`, the GI50 is 15.6 µM in assay [1]; 14.3 µM in assay [2]; 14.2 µM in [9]; 16.8 µM in assay [4]; 18 µM in assay [5]; 18.9 µM in assay [8]. The figures for the GI50 in assay [6] and in [7] were 15.7 µM and 17.5 µM, respectively. The TGI is 33.8 µM in assay [1]; 28.5 µM in assay [2]; 27.8 µM in [9]; 30.4 µM in assay [4]; 32.9 µM in assay [5]; 36.2 µM in assay [8]. The TGI in assay [6] was found to be 30.9 µM; in [7] it was 32.3 µM.
For `COc1ccc2c3c([nH]c2c1[N+](=O)[O-])C(C)N(Cc1ccc([N+](=O)[O-])cc1)CC3` (stereo unspecified), the TGI is 35.3 µM in [1]; over 100 µM in assay [2]; 57.1 µM in [3]; 34.7 µM in assay [4]; 46.9 µM in assay [5]; 61.5 µM in [8]. Moreover, the TGI in assay [6] is 60.7 µM.
`O=C1C=CC(=O)C12CCc1ccccc12`: the TGI in [1], in assay [2], in assay [3], in assay [4], in assay [5] and in assay [8] was over 100 µM in each case. Further, the TGI in assay [6] and in assay [7] was over 100 µM in each case.
Take `COc1ccc(-c2cc(=O)c3ccccc3o2)cc1N`: the TGI in assay [1], in assay [2], in [3], in [4], in assay [5] and in [8] was over 100 µM in each case. In addition, the TGI in assay [6] and in assay [7] was over 100 µM throughout.
For `O=C1[C@H]2ON(c3ccccc3)C(c3ccccc3)[C@H]2C(=O)N1c1ccc(Cc2ccc(N3C(=O)[C@@H]4ON(c5ccccc5)C(c5ccccc5)[C@@H]4C3=O)cc2)cc1` (stereo partly specified), the TGI in assay [1], in assay [2], in assay [3], in assay [4], in assay [5] and in assay [8] was over 100 µM in each case. Besides, the TGI in assay [6] and in [7] was over 100 µM throughout.
Regarding `O=C1O[C@H](c2ccccc2)[C@@H]2CC3(CCN12)OCCO3`, the TGI in assay [1], in assay [2], in assay [3], in assay [4], in [5] and in assay [8] was over 100 µM throughout. The compound further showed a TGI in assay [6] of over 100 µM.
For `CCN(CC)CCCNC(=O)C1COc2cc(-c3cc(=O)c4ccccc4o3)ccc2O1` (stereo unspecified), the TGI is over 100 µM in assay [1]; 38.9 µM in assay [2]; over 100 µM in assay [3]; over 100 µM in [4]; over 100 µM in assay [5]; 50.1 µM in [8]. The TGI in assay [6] and in assay [7] was over 100 µM in each case.
Turning to `O=C(O)NC(c1ccccc1)C(NC(=O)c1ccccc1)c1ccccc1` (stereo unspecified), the TGI in assay [1], in assay [2], in [3], in [4], in assay [5] and in assay [8] was over 100 µM each time. The TGI in assay [6] is over 100 µM.
`CCOC(=O)Cc1ccc2c(c1O)C(=O)c1c(ccc(CC(=O)OCC)c1O)C2=O`: the TGI in assay [1], in assay [2], in assay [3], in assay [5], in [8] and in [6] was over 100 µM throughout. Moreover, the TGI in assay [7] was over 100 µM.
As to `O=C(c1ccccc1)c1c(-c2ccccc2)sc2nc3ccccc3nc12`, the TGI in assay [1], in assay [2], in assay [3], in [4], in assay [5] and in assay [8] was over 100 µM throughout. Besides, the TGI in [6] and in assay [7] was over 100 µM throughout.
